# From patent US9056099B2, “Compositions and methods for treating viral diseases” (NovaDrug, LLC, priority 2010, dated 2015)
# Tested on: HCV (JFH-1) in Huh7-1 cells
# Experiment: Assay for anti-HCV efficacy: JFH-1 HCV infection of Huh7-1 cultures, intracellular HCV RNA by RT-qPCR
# Format: cell-based, Hepatitis C virus
# Details: Compound Example 1 series; % viral titer at 5 μM or 15 μM; HCV-infected Huh7-1 cultures
# Text: In the past, HCV studies involved mainly infected patients and chimpanzees. Recently, a robust HCV infection system was developed with cells derived from the Huh-7 human hepatoma cell line (see, for example, Yu et al., “Development of a cell-based hepatitis C virus infection fluorescent resonance energy transfer assay for high-throughput antiviral compound screening” Antimicrob Agents Chemother. 2009 53:4311-4319 for additional details regarding growing virus stocks, maintenance of the Huh-7 cells, infection parameters, and HCV titers determinations; and Yu & Uprichard “Cell-based hepatitis C virus infection fluorescence resonance energy transfer (FRET) assay for antiviral compound screening” Curr Protoc Microbiol. 2010; Chapter 17: Unit 17.5). Briefly, the assay is based on the unique JFH-1 HCV consensus cDNA derived from an HCV patient. Using reverse genetics, the infectious virus can be rescued from this HCV clone. The recovered viable JFH virus can be passaged serially in Huh-7 cells. For this reason, this system is amenable for testing the activity of potential drugs for their anti-HCV efficacy. The antiviral activity of the compounds described herein is tested in this system.
# Initially, 6×10^3 Huh7-1 cells are incubated overnight in each well of collagen-coated BioCoat 96-well plates (BD Biosciences, Bedford, Mass.) in 0.2 mL 10% Medium composed of Dulbecco's modified Eagle's medium supplemented with 10% fetal bovine serum. Subsequently, at 2 day intervals, the cultures are replenished with fresh 0.2 mL 10% Medium. Once the cultures become confluent, they are continually replenished at 2 day intervals with fresh 0.2 mL 10% Medium that also includes 1% dimethyl sulfoxide (DMSO). After 20 days of these replenishments, the Huh7-1 cultures are incubated with fresh 1% Medium (same as 10% Medium except that the serum level is 1%) containing HCV at a multiplicity of infection (MOI) of 0.05 focus forming units (ffu)/cell. The HCV (JFH-1wt Huh7) stock titer is 1.5×10^5 ffu/mL. The next day (day 1 post-infection) and 2 days later (day 3 post-infection) the media are replenished with fresh 1% Medium containing the test compounds dissolved in DMSO. On the 5th day of treatment with the compounds, cell lysates are collected for RNA isolation and Real Time-quantitative Reverse Transcription Polymerase Chain Reaction (RT-qPCR) and culture media are collected for cytotoxicity analysis.
# Total RNA is isolated from cells by the guanidine thiocyanate method using standard protocols. One μg RNA is used for cDNA synthesis using TaqMan reverse transcription reagents (Applied Biosystems, Foster City, Calif.) followed by real-time PCR using an Applied Biosystems 7300 real-time thermocycler. Illustrative thermal cycling consists of initial denaturation of 10 min at 95° C. followed by 40 cycles of denaturation (15 s at 95° C.) and annealing/extension (1 m at 60° C.). HCV and human glyceraldehyde-3-phosphate dehydrogenase (GAPDH) RNA levels are determined relative to a standard curve of serial dilutions of plasmid containing JFH-1 HCV or GAPDH cDNA. The PCR primers used to detect GAPDH and HCV are illustratively: GAPDH (NMX002046) 5′-GAAGGTGAAGGTCGGAGTC-3′ (SEQ ID NO: 5) (sense) and 5′-[…]-3′ (SEQ ID NO: 6) (anti-sense) JFH-1 HCV (AB047639) 5′-TCTGCGGAACCGGTGAGTA-3′ (SEQ ID NO: 7) (sense) and 5′-TCAGGCAGTACCACAAGGC-3′ (SEQ ID NO: 8) (anti-sense).
# FIGS. 1-7 illustrate the intracellular HCV RNA levels when cultures are incubated with the selected test compounds at the doses shown. When HCV RNA levels are compared among the samples, the data may indicate that the compounds cause a dose dependent decrease in HCV RNA levels relative to the mock-treated (no compound added) HCV infected control.
row,SMILES,Activity (viral titer)
1,Cc1cccc(CN2CCC3C(C2)C(c2ccsc2)CN3C(=O)c2ccccc2F)c1 (centres unmarked),++ (≦60% viral titer at 5 μM)
2,O=C(c1ccccc1F)N1C[C@H](c2ccsc2)[C@H]2CN(Cc3cccnc3)CC[C@H]21,− (>60% viral titer at 15 μM (highest concentration tested))
3,COc1cccc(C2CN(C(=O)c3ccccc3)C3CCN(Cc4ccsc4)CC23)c1 (centres unmarked),++ (≦60% viral titer at 5 μM)
4,Cc1ccc(CN2CC[C@@H]3[C@H](C2)[C@@H](c2ccsc2)CN3C(=O)c2ccccc2F)cc1,− (>60% viral titer at 15 μM (highest concentration tested))
5,COc1ccc(CN2CC[C@@H]3[C@H](C2)[C@@H](c2ccc(F)cc2)CN3C(=O)c2ccccc2)cc1,++ (≦60% viral titer at 5 μM)
6,O=C(c1ccccn1)N1CC(c2ccc(F)cc2)C2CN(Cc3ccc(Cl)cc3)CCC21 (centres unmarked),− (>60% viral titer at 15 μM (highest concentration tested))
7,O=C(c1cccnc1)N1CC(c2ccc(F)cc2)C2CN(Cc3ccc(F)cc3)CCC21 (centres unmarked),− (>60% viral titer at 15 μM (highest concentration tested))
8,COc1cccc(CN2CCC3C(C2)C(c2ccc(F)cc2)CN3C(=O)c2ccccc2)c1 (centres unmarked),+++ (≦30% viral titer at 5 μM)
9,COc1ccc([C@H]2CN(C(=O)c3ccccc3)[C@@H]3CCN(Cc4ccsc4)C[C@H]23)cc1,− (>60% viral titer at 15 μM (highest concentration tested))
10,O=C(c1cccnc1)N1C[C@H](c2ccc(F)cc2)[C@H]2CN(Cc3ccc(Cl)cc3)CC[C@H]21,+++ (≦30% viral titer at 5 μM)
11,O=C(c1ccccc1F)N1C[C@H](c2ccsc2)[C@H]2CN(Cc3cccc(F)c3)CC[C@H]21,++ (≦60% viral titer at 5 μM)
12,O=C(c1cccnc1)N1C[C@H](c2ccc(F)cc2)[C@H]2CN(Cc3ccncc3)CC[C@H]21,− (>60% viral titer at 15 μM (highest concentration tested))
13,O=C(c1ccncc1)N1CC(c2ccc(F)cc2)C2CN(Cc3cccs3)CCC21 (centres unmarked),− (>60% viral titer at 15 μM (highest concentration tested))
14,O=C(c1cccs1)N1CC(c2ccc(F)cc2)C2CN(Cc3ccccc3F)CCC21 (centres unmarked),+ (≦60% viral titer at 15 μM)
15,COc1ccc(C2CN(C(=O)c3ccccc3)C3CCN(Cc4cccs4)CC23)cc1 (centres unmarked),− (>60% viral titer at 15 μM (highest concentration tested))
16,COc1cccc([C@H]2CN(C(=O)c3ccccc3)[C@@H]3CCN(Cc4ccncc4)C[C@H]23)c1,− (>60% viral titer at 15 μM (highest concentration tested))
17,O=C(c1ccccc1)N1C[C@H](c2ccc(F)cc2)[C@H]2CN(Cc3ccc(F)cc3)CC[C@H]21,+++ (≦30% viral titer at 5 μM)
18,O=C(c1ccccn1)N1CC(c2ccc(F)cc2)C2CN(Cc3cccnc3)CCC21 (centres unmarked),− (>60% viral titer at 15 μM (highest concentration tested))
19,Cc1cccc(CN2CCC3C(C2)C(c2ccc(F)cc2)CN3C(=O)c2ccccn2)c1 (centres unmarked),− (>60% viral titer at 15 μM (highest concentration tested))
20,Cc1ccccc1CN1CC[C@@H]2[C@H](C1)[C@@H](c1ccc(F)cc1)CN2C(=O)c1cccs1,− (>60% viral titer at 15 μM (highest concentration tested))
21,O=C(c1ccccc1)N1CC(c2ccc(F)cc2)C2CN(Cc3ccccc3)CCC21 (centres unmarked),++ (≦60% viral titer at 5 μM)
22,COc1cccc(C2CN(C(=O)c3ccccc3)C3CCN(Cc4ccccn4)CC23)c1 (centres unmarked),− (>60% viral titer at 15 μM (highest concentration tested))
23,O=C(c1ccccc1F)N1C[C@H](c2ccsc2)[C@H]2CN(Cc3ccc(F)cc3)CC[C@H]21,+++ (≦30% viral titer at 5 μM)
24,COc1cccc(CN2CCC3C(C2)C(c2ccc(F)cc2)CN3C(=O)c2ccccn2)c1 (centres unmarked),− (>60% viral titer at 15 μM (highest concentration tested))
25,O=C(c1ccccc1F)N1CC(c2ccsc2)C2CN(Cc3ccncc3)CCC21 (centres unmarked),− (>60% viral titer at 15 μM (highest concentration tested))
26,COc1cccc([C@H]2CN(C(=O)c3ccccc3)[C@@H]3CCN(Cc4cccc(F)c4)C[C@H]23)c1,− (>60% viral titer at 15 μM (highest concentration tested))

# Same assay, conditions: Compound Example 2 series; % viral titer at 5 μM or 15 μM; HCV-infected Huh7-1 cultures
row,SMILES,Activity (viral titer)
1,O=C(c1ccccc1)N1CC(c2ccsc2)C2CN(Cc3ccc(F)c(F)c3)CCC21 (centres unmarked),++ (≦60% viral titer at 5 μM)
2,O=C(c1ccccc1)N1C[C@@H](c2ccsc2)[C@@H]2CN(Cc3ccc(F)cc3)CC[C@@H]21,++ (≦60% viral titer at 5 μM)
3,Cc1nn(C)cc1CN1CC[C@H]2[C@@H](C1)[C@H](c1ccc(F)cc1)CN2C(=O)c1cccnc1,− (>60% viral titer at 15 μM (highest concentration tested))
4,O=C(c1ccncc1)N1CC(c2ccsc2)C2CN(Cc3ccccc3)CCC21 (centres unmarked),− (>60% viral titer at 15 μM (highest concentration tested))
5,O=C(c1ccc(F)cc1)N1CC(c2ccsc2)C2CN(Cc3ccccn3)CCC21 (centres unmarked),− (>60% viral titer at 15 μM (highest concentration tested))
6,Cc1ccccc1CN1CC[C@H]2[C@@H](C1)[C@H](c1ccsc1)CN2C(=O)c1ccc(F)cc1,− (>60% viral titer at 15 μM (highest concentration tested))
7,O=C(c1ccc(F)cc1)N1CC(c2ccsc2)C2CN(Cc3ccccc3F)CCC21 (centres unmarked),− (>60% viral titer at 15 μM (highest concentration tested))
8,Cc1ccc(CN2CCC3C(C2)C(c2ccsc2)CN3C(=O)c2ccc(F)cc2)cc1 (centres unmarked),− (>60% viral titer at 15 μM (highest concentration tested))
9,O=C(c1ccccn1)N1C[C@@H](c2ccc(F)cc2)[C@@H]2CN(Cc3ccc(F)cc3)CC[C@@H]21,− (>60% viral titer at 15 μM (highest concentration tested))
10,O=C(c1ccncc1)N1C[C@@H](c2ccc(F)cc2)[C@@H]2CN(Cc3ccccn3)CC[C@@H]21,− (>60% viral titer at 15 μM (highest concentration tested))
11,Cc1ccccc1CN1CC[C@H]2[C@@H](C1)[C@H](c1ccsc1)CN2C(=O)c1ccncc1,− (>60% viral titer at 15 μM (highest concentration tested))
12,O=C(c1ccncc1)N1C[C@@H](c2ccc(F)cc2)[C@@H]2CN(Cc3ccc(F)cc3)CC[C@@H]21,− (>60% viral titer at 15 μM (highest concentration tested))
13,Cc1nn(C)cc1CN1CCC2C(C1)C(c1ccc(F)cc1)CN2C(=O)c1ccccc1 (centres unmarked),+ (≦60% viral titer at 15 μM)
14,O=C(c1ccccc1)N1C[C@@H](c2ccsc2)[C@@H]2CN(Cc3ccccc3Cl)CC[C@@H]21,− (>60% viral titer at 15 μM (highest concentration tested))
15,Cc1ccc(CN2CCC3C(C2)C(c2ccsc2)CN3C(=O)c2ccncc2)cc1 (centres unmarked),− (>60% viral titer at 15 μM (highest concentration tested))
16,O=C(c1ccccc1)N1C[C@@H](c2ccsc2)[C@@H]2CN(Cc3cccc(F)c3)CC[C@@H]21,− (>60% viral titer at 15 μM (highest concentration tested))
17,COc1cccc(CN2CC[C@H]3[C@@H](C2)[C@H](c2ccsc2)CN3C(=O)c2ccncc2)c1,− (>60% viral titer at 15 μM (highest concentration tested))
18,O=C(c1ccccc1)N1CC(c2ccsc2)C2CN(Cc3ccccc3)CCC21 (centres unmarked),++ (≦60% viral titer at 5 μM)
19,O=C(c1cccnc1)N1CC(c2ccc(F)cc2)C2CN(Cc3cccc(F)c3)CCC21 (centres unmarked),− (>60% viral titer at 15 μM (highest concentration tested))
20,O=C(c1ccccc1)N1CC(c2ccsc2)C2CN(Cc3cccnc3)CCC21 (centres unmarked),− (>60% viral titer at 15 μM (highest concentration tested))
21,O=C(c1ccncc1)N1C[C@@H](c2ccc(F)cc2)[C@@H]2CN(Cc3ccccc3Cl)CC[C@@H]21,+++ (≦30% viral titer at 5 μM)
